According to PMC9308172 (Journal of medicinal chemistry, 2017):

Legend:
A/WSN/33-M2-N31S = assay type: cell-based, Influenza virus A/WSN/33 (H1N1); settings: read-out: IC50 A/WSN/33-M2-N31S
[1] = tested on: A/California/07/2009 (H1N1) M2: N31; settings: cited from earlier work

Row | SMILES | IC50 (A/WSN/33-M2-N31S) [nM] | blockage of full-length S31N M2 protein in electrophysiology (EP) studies [1]
1 | NC12CC3CC(CC(C3)C1)C2 [Compound 1, Amantadine, reference compound] | 270 ± 160 | –
2 | NC1C2CC3CC(C2)CC1C3 (stereo not shown) [Compound 2] | 420 ± 460 | –
3 | CC1(N)C2CC3CC(C2)CC1C3 (stereo not shown) [Compound 3] | 330 ± 100 | –
4 | CCC1(N)C2CC3CC(C2)CC1C3 (stereo not shown) [Compound 4] | 340 ± 260 | –
5 | CCCC1(N)C2CC3CC(C2)CC1C3 (stereo not shown) [Compound 5] | 340 ± 100 | no blockage
6 | C1CNC2(C1)C1CC3CC(C1)CC2C3 (stereo not shown) [Compound 6] | 340 ± 80 | –
7 | CN1CCCC12C1CC3CC(C1)CC2C3 (stereo not shown) [Compound 7] | 900 ± 290 | –
8 | CC12CC3CC(CC(C3)C13CCCN3)C2 (stereo not shown) [Compound 8, 1′-Methylspiro[pyrrolidine-2,2′-adamantane]] | 6120 ± 2590 | –
9 | NC1(C23CC4CC(CC(C4)C2)C3)CCCC1 [Compound 9] | 4340 ± 2940 | –
